In patent US4130433A, “Industrial biocides” (Abbott Laboratories, priority 1977, dated 1978):

System: A.niger and P.funiculosum
Test: minimum inhibitory concentration (MIC) test, agar plates, fungal growth
Assay type: cell-based
Details: agar inoculated with 10,000 units each of A.niger and P.funiculosum; 30° C., 2 weeks; in µg/mL (unit assumed)
Procedure: In a minimum inhibitory concentration (MIC) test, the amount of the test compound needed to prevent fungal growth is established. In this test, agar containing the test compound at a specified concentration is inoculated with 1 ml of a broth containing 10,000 units each of A.niger and P.funiculosum. The agar plates inoculated in this fashion are incubated at 30° C. for 2 weeks and growth of the micro-organisms is determined by visual inspection to establish presence or absence of fungal growth. The compounds made according to Example 1 and their MIC data are shown in the following table, wherein X, Y, Y' and Z are as indicated in Structure I.

Structure (SMILES) | MIC
COC(=O)c1cc(Oc2ccc(Cl)cc2Cl)ccc1N1C(=O)C(Cl)=C(Cl)C1=O [X=Cl, Y=2-CO2 Me, Y'=2,4-Cl2, Z=O] | 1000-1500
O=C1C(Cl)=C(Cl)C(=O)N1c1ccc(Oc2ccc(Cl)c(Cl)c2)c(Cl)c1 [X=Cl, Y=3-Cl, Y'=3,4-Cl2, Z=O] | > 2000
O=C1C(Cl)=C(Cl)C(=O)N1c1ccc(Oc2ccc(Cl)cc2Cl)cc1 [X=Cl, Y=H, Y'=2,4-Cl2, Z=O] | 1000-1500
O=C1C(Cl)=C(Cl)C(=O)N1c1ccc(Sc2ccc([N+](=O)[O-])cc2)cc1 [X=Cl, Y=H, Y'=4-NO2, Z=S] | 50-100
O=C1C(Cl)=C(Cl)C(=O)N1c1ccc(Sc2ccccc2)cc1 [X=Cl, Y=H, Y'=H, Z=S, N-(p-phenylthiophenyl)-2,3-dichloromaleimide] | 500-1000
COC(=O)c1cc(Oc2ccc(Cl)cc2Cl)ccc1N1C(=O)C=CC1=O [X=H, Y=2-CO2 Me, Y'=2,4-Cl2, Z=O] | 10- 50
O=C1C=CC(=O)N1c1ccc(Oc2ccc(Cl)cc2Cl)cc1 [X=H, Y=H, Y'=2,4-Cl2, Z=O] | 50-100
O=C1C=CC(=O)N1c1ccc(Sc2ccc([N+](=O)[O-])cc2)cc1 [X=H, Y=H, Y'=4-NO2, Z=S] | 50-100
O=C1C=CC(=O)N1c1ccc(Sc2ccccc2)cc1 [X=H, Y=H, Y'=H, Z=S] | 100-200
